Where a SMILES comes first, the peptide text is derived from it. Bridges are numbered along the chain shown (N, C = ends). Roman numbers before positions name the chains, in order. [ ]: non-standard residue; d: D form. Tle = CC(C)(C)[C@H](N)C(=O)O; dDab = NCC[C@@H](N)C(=O)O; Nle = CCCC[C@H](N)C(=O)O; Orn = NCCC[C@H](N)C(=O)O; Dab = NCC[C@H](N)C(=O)O
Key:
Type in all cases: cell-based
[1] = test system: human red blood cells (hRBC); assay: Hemolysis of human red blood cells; conditions: red cells of human, 1 h, 100
How it was run: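 Each peptide was tested at a single concentration, 100 μg/mL. Erythrocytes (20% v/v) were incubated 1 h at 37° C. under shaking at 300 rpm, centrifuged, and released hemoglobin measured at OD540. Controls were PBS containing 0.001% acetic acid (0%) and Triton X-100 (100%).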

[2] = test system: Klebsiella pneumoniae 968733; conditions: 968733
[3] = test system: Acinetobacter baumannii 872842; conditions: 872842
[4] = test system: Escherichia coli ATCC 25922; conditions: ATCC 25922
How it was run: (§1)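 CLSI broth microdilution; MH-II (cation-adjusted) + 0.002% P-80; ~10^6 CFU/mL inoculum; peptide two-fold serial dilutions; 18-20 h, 35° C; MIC = no visible growth, μg/mL.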

[5] = test system: Acinetobacter baumannii DSM 30008; conditions: DSM 30008
How it was run: as §1

Escherichia coli 926415 = conditions: 926415
[6] = test system: Pseudomonas aeruginosa ATCC 27853; conditions: ATCC 27853
How it was run: as §1

[7] = test system: Klebsiella pneumoniae SSI #3010; conditions: SSI #3010
How it was run: as §1

Row | Klebsiella pneumoniae 968733 MIC [2] | Acinetobacter baumannii 872842 MIC [3] | Escherichia coli ATCC 25922 MIC [4] | Acinetobacter baumannii DSM 30008 MIC [5] | Escherichia coli 926415 MIC (Escherichia coli 926415) | Pseudomonas aeruginosa ATCC 27853 MIC [6] | Klebsiella pneumoniae SSI #3010 MIC [7] | Structure (SMILES) | Hemolysis at 100 μg/mL [1]
1 | 8 µg/mL | 2 µg/mL | 1 µg/mL | 1 µg/mL | 1 µg/mL | 0.25 µg/mL | 1 µg/mL | CCCC[C@@H]1NC(=O)[C@@H]2CCCN2C(=O)[C@H]2CCCN2C(=O)[C@H](CO)NC(=O)[C@H](C)NC(=O)[C@H](C(C)(C)C)NC(=O)[C@H](CCN)NC(=O)[C@H](Cc2c[nH]c3ccccc23)NC(=O)[C@H](CCN)NC(=O)[C@H](CC(=O)N[C@@H](CCN)C(=O)N[C@@H](CCN)C(=O)N[C@H]2CCNC(=O)[C@H]([C@@H](C)O)NC(=O)[C@H](CCN)NC(=O)[C@H](CCN)NC(=O)[C@H](CC(C)C)NC(=O)[C@@H](Cc3ccccc3)NC(=O)[C@H](CCN)NC2=O)NC(=O)[C@H](CCCN)NC(=O)[C@H](CCN)NC(=O)[C@H](Cc2ccc(O)cc2)NC(=O)[C@H](CO)NC1=O [Ex. 4] (I: cyclo([Nle]SY[Dab][Orn]D[Dab]W[Dab][Tle]AS[dP]P) / II: [Dab][Dab][Dab][Dab][dF]L[Dab][Dab]T; amide I:6-II:N; lactam II:3-II:C) | 1%
2 | 2 µg/mL | 1 µg/mL | 2 µg/mL | 0.5 µg/mL | 0.5 µg/mL | 0.5 µg/mL | 0.5 µg/mL | CCCC[C@@H]1NC(=O)[C@@H]2CCCN2C(=O)[C@H]2CCCN2C(=O)[C@H](CO)NC(=O)[C@H](C)NC(=O)[C@H](C(C)(C)C)NC(=O)[C@H](CCN)NC(=O)[C@H](Cc2c[nH]c3ccccc23)NC(=O)[C@H](CCN)NC(=O)[C@@H](CCC(=O)N[C@H](C(=O)N[C@@H](CCN)C(=O)N[C@H]2CCNC(=O)[C@H]([C@@H](C)O)NC(=O)[C@H](CCN)NC(=O)[C@H](CCN)NC(=O)[C@H](CC(C)C)NC(=O)[C@@H](Cc3ccccc3)NC(=O)[C@H](CCN)NC2=O)[C@@H](C)O)NC(=O)[C@H](CCCN)NC(=O)[C@H](CCN)NC(=O)[C@H](Cc2ccc(O)cc2)NC(=O)[C@H](CO)NC1=O [Ex. 5] (I: cyclo([Nle]SY[Dab][Orn][dE][Dab]W[Dab][Tle]AS[dP]P) / II: T[Dab][Dab][Dab][dF]L[Dab][Dab]T; amide I:6-II:N; lactam II:3-II:C) | 1%
3 | 2 µg/mL | 2 µg/mL | 0.25 µg/mL | 2 µg/mL | 1 µg/mL | 0.5 µg/mL | 0.5 µg/mL | CCCC[C@@H]1NC(=O)[C@@H]2CCCN2C(=O)[C@H]2CCCN2C(=O)[C@H](CO)NC(=O)[C@H](C)NC(=O)[C@H](C(C)(C)C)NC(=O)[C@H](CCN)NC(=O)[C@H](Cc2c[nH]c3ccccc23)NC(=O)[C@H](CCN)NC(=O)[C@H](CCC(=O)N[C@H](C(=O)N[C@@H](CCN)C(=O)N[C@H]2CCNC(=O)[C@H]([C@@H](C)O)NC(=O)[C@H](CCN)NC(=O)[C@H](CCN)NC(=O)[C@H](CC(C)C)NC(=O)[C@@H](Cc3ccccc3)NC(=O)[C@H](CCN)NC2=O)[C@@H](C)O)NC(=O)[C@H](CCCN)NC(=O)[C@H](CCN)NC(=O)[C@H](Cc2ccc(O)cc2)NC(=O)[C@H](CO)NC1=O [Ex. 6] (I: cyclo([Nle]SY[Dab][Orn]E[Dab]W[Dab][Tle]AS[dP]P) / II: T[Dab][Dab][Dab][dF]L[Dab][Dab]T; amide I:6-II:N; lactam II:3-II:C) | <1%
4 | 2 µg/mL | 1 µg/mL | 0.125 µg/mL | 1 µg/mL | 0.25 µg/mL | 0.25 µg/mL | 0.25 µg/mL | CCCC[C@@H]1NC(=O)[C@@H]2CCCN2C(=O)[C@H]2CCCN2C(=O)[C@H](CO)NC(=O)[C@H](C)NC(=O)[C@H](C(C)(C)C)NC(=O)[C@H](CCN)NC(=O)[C@H](Cc2c[nH]c3ccccc23)NC(=O)[C@H](CCN)NC(=O)[C@@H](CCN)NC(=O)[C@H](CCC(=O)N[C@@H](CCN)C(=O)N[C@H](C(=O)N[C@@H](CCN)C(=O)N[C@H]2CCNC(=O)[C@H]([C@@H](C)O)NC(=O)[C@H](CCN)NC(=O)[C@H](CCN)NC(=O)[C@H](CC(C)C)NC(=O)[C@@H](Cc3ccccc3)NC(=O)[C@H](CCN)NC2=O)[C@@H](C)O)NC(=O)[C@H](CCN)NC(=O)[C@H](Cc2ccc(O)cc2)NC(=O)[C@H](CO)NC1=O [Ex. 7] (I: cyclo(W[Dab][Tle]AS[dP]P[Nle]SY[Dab]E[dDab][Dab]) / II: [Dab]T[Dab][Dab][Dab][dF]L[Dab][Dab]T; amide I:12-II:N; lactam II:4-II:C) | 1%
5 | 2 µg/mL | 0.5 µg/mL | 0.25 µg/mL | 0.5 µg/mL | 1 µg/mL | 0.25 µg/mL | 0.25 µg/mL | CC(C)C[C@@H]1NC(=O)[C@@H](Cc2ccccc2)NC(=O)[C@H](CCN)NC(=O)[C@@H](NC(=O)[C@H](CCN)NC(=O)[C@@H](NC(=O)[C@H](CCN)NC(=O)[C@H]2CC(=O)N[C@@H](CCN)C(=O)N[C@@H](Cc3c[nH]c4ccccc34)C(=O)N[C@@H](CCN)C(=O)N[C@@H](C(C)(C)C)C(=O)N[C@@H](C)C(=O)N[C@@H](CO)C(=O)N3CCC[C@@H]3C(=O)N3CCC[C@H]3C(=O)N[C@@H](C(C)C)C(=O)N[C@@H](CO)C(=O)N[C@@H](Cc3ccc(O)cc3)C(=O)N[C@@H](CCN)C(=O)N[C@@H](CCCN)C(=O)N2)[C@@H](C)O)CCNC(=O)[C@H]([C@@H](C)O)NC(=O)[C@H](CCN)NC(=O)[C@H](CCN)NC1=O [Ex. 8] ([Dab]W[Dab][Tle]AS[dP]PVSY[Dab][Orn][dD][Dab]T[Dab][Dab][Dab][dF]L[Dab][Dab]T; lactam 18-C, N-14) | 1%
6 | 2 µg/mL | 2 µg/mL | 0.25 µg/mL | 0.25 µg/mL | 1 µg/mL | 0.5 µg/mL | 0.5 µg/mL | CCCC[C@@H]1NC(=O)[C@@H]2CCCN2C(=O)[C@H]2CCCN2C(=O)[C@H](CO)NC(=O)[C@H](C)NC(=O)[C@H](C(C)(C)C)NC(=O)[C@H](CCN)NC(=O)[C@H](Cc2c[nH]c3ccccc23)NC(=O)[C@H](CCN)NC(=O)[C@@H](CCC(=O)N[C@@H](CCN)C(=O)N[C@H](C(=O)N[C@@H](CCN)C(=O)N[C@H]2CCNC(=O)[C@H]([C@@H](C)O)NC(=O)[C@H](CCN)NC(=O)[C@H](CCN)NC(=O)[C@H](CC(C)C)NC(=O)[C@@H](Cc3ccccc3)NC(=O)[C@H](CCN)NC2=O)[C@@H](C)O)NC(=O)[C@H](CCCN)NC(=O)[C@H](CCN)NC(=O)[C@H](Cc2ccc(O)cc2)NC(=O)[C@H](CO)NC1=O [Ex. 9] (I: cyclo([Nle]SY[Dab][Orn][dE][Dab]W[Dab][Tle]AS[dP]P) / II: [Dab]T[Dab][Dab][Dab][dF]L[Dab][Dab]T; amide I:6-II:N; lactam II:4-II:C) | 1%
7 | 2 µg/mL | 1 µg/mL | 0.125 µg/mL | 1 µg/mL | 0.5 µg/mL | 0.5 µg/mL | 0.25 µg/mL | CCCC[C@@H]1NC(=O)[C@@H]2CCCN2C(=O)[C@H]2CCCN2C(=O)[C@H](CO)NC(=O)[C@H](C)NC(=O)[C@H](C(C)(C)C)NC(=O)[C@H](CCN)NC(=O)[C@H](Cc2c[nH]c3ccccc23)NC(=O)[C@H](CCC(=O)N[C@@H](CCN)C(=O)N[C@H](C(=O)N[C@@H](CCN)C(=O)N[C@H]2CCNC(=O)[C@H]([C@@H](C)O)NC(=O)[C@H](CCN)NC(=O)[C@H](CCN)NC(=O)[C@H](CC(C)C)NC(=O)[C@@H](Cc3ccccc3)NC(=O)[C@H](CCN)NC2=O)[C@@H](C)O)NC(=O)[C@@H](CCN)NC(=O)[C@H](CCCN)NC(=O)[C@H](CCN)NC(=O)[C@H](Cc2ccc(O)cc2)NC(=O)[C@H](CO)NC1=O [Ex. 10] (I: cyclo([Nle]SY[Dab][Orn][dDab]EW[Dab][Tle]AS[dP]P) / II: [Dab]T[Dab][Dab][Dab][dF]L[Dab][Dab]T; amide I:7-II:N; lactam II:4-II:C) | 1%

Source: patent US10829520B2, “Beta-hairpin peptidomimetics” (POLYPHOR AG, priority 2015, dated 2020)
